# Several values for one entry are separate records, joined by “and”; a condition that tells them apart may be missing. Identical values can stand only once.
# Test system: 616215-338-R-J1-PDC complex spheroid growth, % test/control
# Test: Anticancer human tumor 616215-338-R-J1-PDC patient-derived colon adenocarcinoma cell line growth inhibition [Asc]
# Conditions: for viability, T/C: stronger effect = lower value
# How it was run: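 Stromal components (HUVEC and hMSC) are co-assembled with the cancer cells into multicellular spheroids. Drugs are then added singly or paired, at concentrations falling by half-log increments from a clinically achievable maximum, capped at 10 microM without known Cmax.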
# [1] = curve of first compound, second compound 0.03 µM
# [2] = curve of first compound, second compound 0.0949 µM
# [3] = curve of first compound, second compound 0.3 µM
# [4] = curve of first compound, second compound 0.949 µM
# [5] = curve of first compound, second compound 3 µM
# [6] = second compound 0.03 µM, first compound 0.00316 µM
# [7] = second compound 0.03 µM, first compound 0.01 µM
# [8] = second compound 0.03 µM, first compound 0.0316 µM
# [9] = second compound 0.03 µM, first compound 0.1 µM
# [10] = second compound 0.0949 µM, first compound 0.00316 µM
# [11] = second compound 0.0949 µM, first compound 0.01 µM
# [12] = second compound 0.0949 µM, first compound 0.0316 µM
# [13] = second compound 0.0949 µM, first compound 0.1 µM
# [14] = second compound 0.3 µM, first compound 0.00316 µM
# [15] = second compound 0.3 µM, first compound 0.01 µM
# [16] = second compound 0.3 µM, first compound 0.0316 µM
# [17] = second compound 0.3 µM, first compound 0.1 µM
# [18] = second compound 0.949 µM, first compound 0.00316 µM
# [19] = second compound 0.949 µM, first compound 0.01 µM
# [20] = second compound 0.949 µM, first compound 0.0316 µM
# [21] = second compound 0.949 µM, first compound 0.1 µM
# [22] = second compound 3 µM, first compound 0.00316 µM
# [23] = second compound 3 µM, first compound 0.01 µM
# [24] = second compound 3 µM, first compound 0.0316 µM
# [25] = second compound 3 µM, first compound 0.1 µM
# 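Further: spheroids exposed to agents for seven days before readout.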
# 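Wherever viability, T/C is given: 100% = DMSO vehicle control viability.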
smiles,measurement,setting,value
NC1CCC(NC2CC2c2ccccc2)CC1 (centres undefined) + CCN1C(C(=O)NC23CCC(C(=O)O)(CC2)CC3)C(c2cccc(Cl)c2F)C2(C(=O)Nc3cc(Cl)ccc32)C12CCCCC2,IC50,[1],> 100 nM
same,IC50,[2],> 100 nM
same,IC50,[3],> 100 nM
same,IC50,[4],> 100 nM
same,IC50,[5],> 100 nM
same,"viability, T/C","second compound 0.03 µM, first compound 0.000316 µM",106%
same,"viability, T/C","second compound 0.03 µM, first compound 0.001 µM",98.2%
same,"viability, T/C",[6],99.7%
same,"viability, T/C",[7],104%
same,"viability, T/C",[8],100%
same,"viability, T/C",[9],103%
same,"viability, T/C","second compound 0.0949 µM, first compound 0.000316 µM",95.5%
same,"viability, T/C","second compound 0.0949 µM, first compound 0.001 µM",100%
same,"viability, T/C",[10],91.3%
same,"viability, T/C",[11],91.7%
same,"viability, T/C",[12],93.8%
same,"viability, T/C",[13],95.2%
same,"viability, T/C","second compound 0.3 µM, first compound 0.000316 µM",68.9%
same,"viability, T/C","second compound 0.3 µM, first compound 0.001 µM",67.6%
same,"viability, T/C",[14],73%
same,"viability, T/C",[15],65.9%
same,"viability, T/C",[16],62.4%
same,"viability, T/C",[17],68%
same,"viability, T/C","second compound 0.949 µM, first compound 0.000316 µM",73.4%
same,"viability, T/C","second compound 0.949 µM, first compound 0.001 µM",72.2%
same,"viability, T/C",[18],83.7%
same,"viability, T/C",[19],71.7%
same,"viability, T/C",[20],70.1%
same,"viability, T/C",[21],72.7%
same,"viability, T/C","second compound 3 µM, first compound 0.000316 µM",54.6%
same,"viability, T/C","second compound 3 µM, first compound 0.001 µM",58.9%
same,"viability, T/C",[22],58.2%
same,"viability, T/C",[23],62.9%
same,"viability, T/C",[24],51%
same,"viability, T/C",[25],54.3%
C=CC(=O)N1CCN(c2nc(=O)n(-c3c(C)ccnc3C(C)C)c3nc(-c4c(O)cccc4F)c(F)cc23)C(C)C1 (centres undefined),"viability, T/C",compound 0.0316 µM,97% and 99.6% and 107%
same,"viability, T/C",compound 0.1 µM,95.3% and 101% and 91.9%
same,"viability, T/C",compound 0.316 µM,102% and 98.2% and 97.2%
same,"viability, T/C",compound 1 µM,102% and 100% and 74.5%
same,"viability, T/C",compound 3.16 µM,106% and 109% and 52.6%
same,"viability, T/C",compound 10 µM,102% and 106% and 35.4%
same,IC50,curve of compound,> 10000 nM and 3750 nM
CNC(C)C(=O)NC1CN(S(=O)(=O)c2cccc(S(=O)(=O)N3CCC4CCC(C(=O)NC(c5ccccc5)c5ccccc5)N4C(=O)C(NC(=O)C(C)NC)C3)c2)CCC2CCC(C(=O)NC(c3ccccc3)c3ccccc3)N2C1=O (centres undefined) + CCN1C(C(=O)NC23CCC(C(=O)O)(CC2)CC3)C(c2cccc(Cl)c2F)C2(C(=O)Nc3cc(Cl)ccc32)C12CCCCC2,IC50,[1],> 1000 nM
same,IC50,[2],> 1000 nM
same,IC50,[3],> 1000 nM
same,IC50,[4],> 1000 nM
same,IC50,[5],< 3.16 nM
same,"viability, T/C",[6],95.2%
same,"viability, T/C",[7],96.1%
same,"viability, T/C",[8],87.4%
same,"viability, T/C",[9],97.2%
same,"viability, T/C","second compound 0.03 µM, first compound 0.316 µM",91%
same,"viability, T/C","second compound 0.03 µM, first compound 1 µM",87%
same,"viability, T/C",[10],90.9%
same,"viability, T/C",[11],91.4%
same,"viability, T/C",[12],95.7%
same,"viability, T/C",[13],86.6%
same,"viability, T/C","second compound 0.0949 µM, first compound 0.316 µM",76%
same,"viability, T/C","second compound 0.0949 µM, first compound 1 µM",81.3%
same,"viability, T/C",[14],74.1%
same,"viability, T/C",[15],58.8%
same,"viability, T/C",[16],62.3%
same,"viability, T/C",[17],58.9%
same,"viability, T/C","second compound 0.3 µM, first compound 0.316 µM",66.5%
same,"viability, T/C","second compound 0.3 µM, first compound 1 µM",61.2%
same,"viability, T/C",[18],71.5%
same,"viability, T/C",[19],75.5%
same,"viability, T/C",[20],67.4%
same,"viability, T/C",[21],63.5%
same,"viability, T/C","second compound 0.949 µM, first compound 0.316 µM",72.8%
same,"viability, T/C","second compound 0.949 µM, first compound 1 µM",78.5%
same,"viability, T/C",[22],41.1%
same,"viability, T/C",[23],49.4%
same,"viability, T/C",[24],51.6%
same,"viability, T/C",[25],48.7%
same,"viability, T/C","second compound 3 µM, first compound 0.316 µM",47.2%
same,"viability, T/C","second compound 3 µM, first compound 1 µM",52.8%
Cn1ncnc1[C@H]1c2n[nH]c(=O)c3cc(F)cc(c23)N[C@@H]1c1ccc(F)cc1 + CNC(C)C(=O)NC1CN(S(=O)(=O)c2cccc(S(=O)(=O)N3CCC4CCC(C(=O)NC(c5ccccc5)c5ccccc5)N4C(=O)C(NC(=O)C(C)NC)C3)c2)CCC2CCC(C(=O)NC(c3ccccc3)c3ccccc3)N2C1=O,IC50,"curve of first compound, second compound 0.00316 µM",< 0.316 nM
same,IC50,"curve of first compound, second compound 0.01 µM",> 100 nM
same,IC50,"curve of first compound, second compound 0.0316 µM",> 100 nM
same,IC50,"curve of first compound, second compound 0.1 µM",> 100 nM
same,IC50,"curve of first compound, second compound 0.316 µM",> 100 nM
same,IC50,"curve of first compound, second compound 1 µM",> 100 nM
same,"viability, T/C","second compound 0.00316 µM, first compound 0.000316 µM",10.7%
same,"viability, T/C","second compound 0.00316 µM, first compound 0.001 µM",10.5%
same,"viability, T/C","second compound 0.00316 µM, first compound 0.00316 µM",7.58%
same,"viability, T/C","second compound 0.00316 µM, first compound 0.01 µM",9.25%
same,"viability, T/C","second compound 0.00316 µM, first compound 0.0316 µM",9.45%
same,"viability, T/C","second compound 0.00316 µM, first compound 0.1 µM",8.48%
same,"viability, T/C","second compound 0.01 µM, first compound 0.000316 µM",95%
same,"viability, T/C","second compound 0.01 µM, first compound 0.001 µM",101%
same,"viability, T/C","second compound 0.01 µM, first compound 0.00316 µM",97.2%
same,"viability, T/C","second compound 0.01 µM, first compound 0.01 µM",92.4%
same,"viability, T/C","second compound 0.01 µM, first compound 0.0316 µM",95.1%
same,"viability, T/C","second compound 0.01 µM, first compound 0.1 µM",98.5%
same,"viability, T/C","second compound 0.0316 µM, first compound 0.000316 µM",91.5%
same,"viability, T/C","second compound 0.0316 µM, first compound 0.001 µM",95.5%
same,"viability, T/C","second compound 0.0316 µM, first compound 0.00316 µM",101%
same,"viability, T/C","second compound 0.0316 µM, first compound 0.01 µM",102%
same,"viability, T/C","second compound 0.0316 µM, first compound 0.0316 µM",100%
same,"viability, T/C","second compound 0.0316 µM, first compound 0.1 µM",110%
same,"viability, T/C","second compound 0.1 µM, first compound 0.000316 µM",106%
same,"viability, T/C","second compound 0.1 µM, first compound 0.001 µM",108%
same,"viability, T/C","second compound 0.1 µM, first compound 0.00316 µM",103%
same,"viability, T/C","second compound 0.1 µM, first compound 0.01 µM",108%
same,"viability, T/C","second compound 0.1 µM, first compound 0.0316 µM",102%
same,"viability, T/C","second compound 0.1 µM, first compound 0.1 µM",103%
same,"viability, T/C","second compound 0.316 µM, first compound 0.000316 µM",97.6%
same,"viability, T/C","second compound 0.316 µM, first compound 0.001 µM",104%
same,"viability, T/C","second compound 0.316 µM, first compound 0.00316 µM",102%
same,"viability, T/C","second compound 0.316 µM, first compound 0.01 µM",104%
same,"viability, T/C","second compound 0.316 µM, first compound 0.0316 µM",102%
same,"viability, T/C","second compound 0.316 µM, first compound 0.1 µM",98.4%
same,"viability, T/C","second compound 1 µM, first compound 0.000316 µM",107%
same,"viability, T/C","second compound 1 µM, first compound 0.001 µM",99.2%
same,"viability, T/C","second compound 1 µM, first compound 0.00316 µM",97.2%
same,"viability, T/C","second compound 1 µM, first compound 0.01 µM",99.2%
same,"viability, T/C","second compound 1 µM, first compound 0.0316 µM",96%
same,"viability, T/C","second compound 1 µM, first compound 0.1 µM",101%
